Laboratory results taken from US20250034159A1, “INHIBITORS OF EPIDERMAL GROWTH FACTOR RECEPTOR” (ORIC Pharmaceuticals, Inc., priority 2021, published 2025).
pIC50: −log10 of the molar value. Read-outs that look alike come from different tables or passages of the source.

Assays:
[1] = target: recombinant human EGFR L858R/C797S double mutant protein (Homo sapiens (Human), UniProt P00533, C797S/L858R); assay: Biological Activity Assay B: biochemical assay against EGFR L858R/C797S protein (EGFR LR/CS)
recombinant human EGFR L858R/C797S double mutant protein, sequence (P00533 25-1210 C797S/L858R): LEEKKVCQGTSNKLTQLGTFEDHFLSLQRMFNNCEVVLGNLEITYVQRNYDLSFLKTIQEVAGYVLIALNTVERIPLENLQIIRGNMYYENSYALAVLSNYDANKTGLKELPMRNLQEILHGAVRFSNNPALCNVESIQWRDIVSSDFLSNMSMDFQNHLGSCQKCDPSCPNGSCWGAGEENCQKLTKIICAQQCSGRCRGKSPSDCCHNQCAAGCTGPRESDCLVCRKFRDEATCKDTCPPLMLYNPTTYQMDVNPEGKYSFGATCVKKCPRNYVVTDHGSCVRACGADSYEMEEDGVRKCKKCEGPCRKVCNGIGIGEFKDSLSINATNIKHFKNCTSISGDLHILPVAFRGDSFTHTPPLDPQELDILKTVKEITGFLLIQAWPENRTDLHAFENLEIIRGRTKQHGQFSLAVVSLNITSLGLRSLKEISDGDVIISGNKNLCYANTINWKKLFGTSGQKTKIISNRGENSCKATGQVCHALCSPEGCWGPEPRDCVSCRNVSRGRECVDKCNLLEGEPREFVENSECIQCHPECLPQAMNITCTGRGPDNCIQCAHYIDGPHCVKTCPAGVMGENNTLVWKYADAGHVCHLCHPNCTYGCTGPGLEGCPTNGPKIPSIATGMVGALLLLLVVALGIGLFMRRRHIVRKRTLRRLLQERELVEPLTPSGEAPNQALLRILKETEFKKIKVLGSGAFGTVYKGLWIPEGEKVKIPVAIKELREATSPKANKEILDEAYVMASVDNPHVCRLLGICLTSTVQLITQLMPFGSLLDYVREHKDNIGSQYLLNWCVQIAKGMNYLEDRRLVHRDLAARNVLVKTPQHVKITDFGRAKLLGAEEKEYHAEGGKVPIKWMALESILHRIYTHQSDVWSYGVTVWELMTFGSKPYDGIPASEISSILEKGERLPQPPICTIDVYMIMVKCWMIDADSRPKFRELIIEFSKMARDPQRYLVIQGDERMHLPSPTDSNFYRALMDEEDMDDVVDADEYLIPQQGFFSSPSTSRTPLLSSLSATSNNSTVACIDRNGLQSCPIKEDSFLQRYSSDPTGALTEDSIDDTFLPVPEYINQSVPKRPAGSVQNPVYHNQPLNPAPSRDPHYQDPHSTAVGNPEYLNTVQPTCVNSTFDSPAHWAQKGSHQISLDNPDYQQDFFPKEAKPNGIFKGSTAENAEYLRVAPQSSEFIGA
Procedure: In Row A of a 384-well polypropylene plate, was added 48 μL of DMSO. In wells A1 and A24, were added 12 μL of DMSO. […] To a well in Row A were added 12 μL of each 10 mM test compound stock (100% DMSO). […] The final intermediate dilution plate contained 4×16-point compound serial dilutions in assay buffer. The DMSO concentration was 10%. The intermediate compound dilution plate was transferred to the Bravo and the “5 uL dispense into ARP.pro” protocol was run. To the black low volume assay ready plates, were added 5 μL of 40 uM Phosphosens peptide sensor/4 mM ATP working solution to each well. […] To column 24, was added 10 μL of assay buffer. The final DMSO concentration was 2.5%. […] The plates were sealed with the TopSeal-A Plus plate seals. […] Set for 90 cycles with 120 second interval. […] The slope of each curve was constructed using Dotmatics in each well, and each IC50s was calculated using a 4-parameter fit model.

[2] = target: recombinant human EGFR exon 19 deletion/C797S double mutant protein (Homo sapiens (Human), UniProt P00533, C797S/DEL746-750); assay: Biological Activity Assay C: biochemical assay against EGFR exon 19 deletion/C797S protein (EGFR d19/CS)
recombinant human EGFR exon 19 deletion/C797S double mutant protein, sequence (P00533 other isoform, or with tags, fused parts or gaps C797S/del 1-668/del 746-750 limits assumed): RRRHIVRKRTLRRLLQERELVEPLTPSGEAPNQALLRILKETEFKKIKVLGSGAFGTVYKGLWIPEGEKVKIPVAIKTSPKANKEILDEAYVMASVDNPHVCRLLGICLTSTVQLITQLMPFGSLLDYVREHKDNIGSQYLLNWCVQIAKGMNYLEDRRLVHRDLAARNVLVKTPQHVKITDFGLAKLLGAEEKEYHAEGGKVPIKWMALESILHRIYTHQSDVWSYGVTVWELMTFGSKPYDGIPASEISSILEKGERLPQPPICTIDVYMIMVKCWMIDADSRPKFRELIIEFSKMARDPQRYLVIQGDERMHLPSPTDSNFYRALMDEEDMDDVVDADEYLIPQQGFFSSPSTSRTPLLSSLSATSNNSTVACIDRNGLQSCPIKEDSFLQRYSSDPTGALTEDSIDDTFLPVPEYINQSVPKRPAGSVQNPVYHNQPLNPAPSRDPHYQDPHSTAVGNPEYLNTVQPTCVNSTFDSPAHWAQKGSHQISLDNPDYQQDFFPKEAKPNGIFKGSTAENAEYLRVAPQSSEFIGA
Summary of the method: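 IC50 values were fitted with a 4-parameter model to reaction slopes taken from 90 kinetic reads spaced 120 s apart. The Phosphosens sensor/ATP working solution was 40 uM/4 mM, and compound was dosed as 16-point dilutions at 2.5% final DMSO.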

Ba/F3_EGFR WT cells = assay: Biological Activity Assay D: BaF3 cell proliferation assay, EGFR wild-type (BaF3 WT); type: cell-based; details: Ba/F3 EGFR, read-out: BaF3 WT IC50
BaF3_EGFR LR/CS cells = assay: Biological Activity Assay D: BaF3 cell proliferation assay, EGFR L858R/C797S mutant (BaF3 LR/CS); type: cell-based; details: Ba/F3 EGFR, read-out: BaF3 LR/CS IC50
BaF3_EGFR d19/CS cells = assay: Biological Activity Assay D: BaF3 cell proliferation assay, EGFR exon 19 deletion/C797S (BaF3 d19/CS); type: cell-based; details: Ba/F3 EGFR, read-out: BaF3 d19/CS IC50
[3] = Ba/F3_EGFR WT cells, ~72 hours, CellTiter-Glo
[4] = BaF3_EGFR LR/CS cells, ~72 hours, CellTiter-Glo
[5] = BaF3_EGFR d19/CS cells, ~72 hours, CellTiter-Glo

pIC50 [1] | pIC50 [2] | pIC50 (Ba/F3_EGFR WT cells; [3]) | pIC50 (BaF3_EGFR LR/CS cells; [4]) | pIC50 (BaF3_EGFR d19/CS cells; [5]) | SMILES | pIC50 (Ba/F3_EGFR WT cells; 72 h) | pIC50 (BaF3_EGFR LR/CS cells; 72 h) | pIC50 (BaF3_EGFR d19/CS cells; 72 h)
9.80 | 9.89 | 6.64 | 8.08 | 7.76 | CS(=O)(=O)NCCn1cc(-c2ncnc3oc(-c4ccccc4)cc23)c(-c2ccc(F)cc2)n1 [Example 103, N-{2-[3-(4-Fluorophenyl)-4-(6-phenylfuro[2,3-d]pyrimidin-4-yl)-1H-pyrazol-1-yl]ethyl}methanesulfonamide] |  |  | 
9.58 | 9.47 | 6.23 | 7.61 | 7.70 | NS(=O)(=O)CCCn1cc(-c2ncnc3oc(-c4ccccc4)cc23)c(-c2ccc(F)cc2)n1 [Example 65, 3-[3-(4-Fluorophenyl)-4-(6-phenylfuro[2,3-d]pyrimidin-4-yl)-1H-pyrazol-1-yl]propane-1-sulfonamide] |  |  | 
9.12 | 8.77 | 5.77 | 6.87 | 6.82 | O=S1(=O)CCC(Cn2cc(-c3ncnc4oc(-c5ccccc5)cc34)c(-c3ccc(F)cc3)n2)CC1 [Example 105, 4-{[3-(4-fluorophenyl)-4-(6-phenylfuro[2,3-d]pyrimidin-4-yl)-1H-pyrazol-1-yl]methyl}-1λ6-thiane-1,1-dione] |  |  | 
9.09 | 8.90 | 5.73 | 6.79 | 6.67 | O=S1(=O)CC(Cn2cc(-c3ncnc4oc(-c5ccccc5)cc34)c(-c3ccc(F)cc3)n2)C1 [Example 98, 3-{[3-(4-fluorophenyl)-4-(6-phenylfuro[2,3-d]pyrimidin-4-yl)-1H-pyrazol-1-yl]methyl}-1λ6-thietane-1,1-dione] |  |  | 
9.33 | 9.57 | 5.90 | 6.99 | 7.03 | CNC(=O)CCn1cc(-c2ncnc3oc(-c4ccccc4)cc23)c(-c2ccc(F)cc2)n1 [Example 117, 3-[3-(4-fluorophenyl)-4-(6-phenylfuro[2,3-d]pyrimidin-4-yl)-1H-pyrazol-1-yl]-N-methylpropanamide] |  |  | 
8.90 | 9.12 | 5.23 | 6.63 | 6.67 | CC1(Cn2cc(-c3ncnc4oc(-c5ccccc5)cc34)c(-c3ccc(F)cc3)n2)COC1 [Example 59, 4-{3-(4-fluorophenyl)-1-[(3-methyloxetan-3-yl)methyl]-1H-pyrazol-4-yl}-6-phenylfuro[2,3-d]pyrimidine] |  |  | 
8.77 | 8.73 | 5.35 | 6.58 | 6.50 | N#CCn1cc(-c2ncnc3oc(-c4ccccc4)cc23)c(-c2ccc(F)cc2)n1 [Example 30] |  |  | 
9.28 | 9.35 | 5.48 | 7.01 | 7.18 | Fc1ccc(-c2nn(C3COC3)cc2-c2ncnc3oc(-c4ccccc4)cc23)cc1 [Example 31, 4-[3-(4-Fluorophenyl)-1-(oxetan-3-yl)-1H-pyrazol-4-yl]-6-phenylfuro[2,3-d]pyrimidine] |  |  | 
9.29 | 9.43 | 5.62 | 7.21 | 7.46 | O=S1(=O)CCC(n2cc(-c3ncnc4oc(-c5ccccc5)cc34)c(-c3ccc(F)cc3)n2)C1 (centres unmarked) [Example 41, 3-[3-(4-fluorophenyl)-4-(6-phenylfuro[2,3-d]pyrimidin-4-yl)-1H-pyrazol-1-yl]-1λ6-thiolane-1,1-dione] |  |  | 
9.28 | 9.47 | 5.68 | 7.24 | 7.43 | O[C@H]1C[C@@H](Cn2cc(-c3ncnc4oc(-c5ccccc5)cc34)c(-c3ccc(F)cc3)n2)C1 [Example 42, (1s, 3s)-3-{[3-(4-Fluorophenyl)-4-(6-phenylfuro[2,3-d]pyrimidin-4-yl)-1H-pyrazol-1-yl]methyl}cyclobutan-1-ol] |  |  | 

The next lines start with the compound.

SMILES | pIC50 [1] | pIC50 [2] | pIC50 (Ba/F3_EGFR WT cells; [3]) | pIC50 (BaF3_EGFR LR/CS cells; [4]) | pIC50 (BaF3_EGFR d19/CS cells; [5]) | pIC50 (Ba/F3_EGFR WT cells; 72 h) | pIC50 (BaF3_EGFR LR/CS cells; 72 h) | pIC50 (BaF3_EGFR d19/CS cells; 72 h)
Fc1ccc(-c2nn(C3COC3)nc2-c2ncnc3oc(-c4ccccc4)cc23)cc1 [Example 81, 4-[5-(4-fluorophenyl)-2-(oxetan-3-yl)-2H-1,2,3-triazol-4-yl]-6-phenylfuro[2,3-d]pyrimidine] | 8.59 | 8.95 | 4.87 | 6.62 | 6.48 |  |  | 
CS(=O)(=O)n1ncc(-c2ncnc3oc(-c4ccccc4)cc23)c1-c1ccc(F)cc1 [Example 56, 4-[5-(4-fluorophenyl)-1-(methanesulfonyl)-1H-pyrazol-4-yl]-6-phenylfuro[2,3-d]pyrimidine] | 8.45 | 8.34 | 5.26 | 6.65 | 6.73 |  |  | 
CN1CCN(c2ccc(-c3nc4c(-c5cn(CCCO)nc5-c5ccc(F)cc5)ncnc4o3)cc2)CC1 [Example 10, 3-[3-(4-Fluorophenyl)-4-{2-[4-(4-methylpiperazin-1-yl)phenyl][1,3]oxazolo[5,4-d]pyrimidin-7-yl}-1H-pyrazol-1-yl]propan-1-ol] | 9.82 | 9.95 | 7.13 | 8.79 | 8.88 |  |  | 
CC(C)(O)CCn1cc(-c2ncnc3oc(-c4ccccc4)nc23)c(-c2ccc(F)cc2)n1 [Example 21, 4-[3-(4-Fluorophenyl)-4-(2-phenyl[1,3]oxazolo[5,4-d]pyrimidin-7-yl)-1H-pyrazol-1-yl]-2-methylbutan-2-ol] | 8.28 | 8.26 | 4.73 | 6.43 | 6.27 |  |  | 
OCCCc1nc(-c2ccc(F)cc2)c(-c2ccnc3[nH]c(-c4ccccc4)cc23)s1 [Example 8, 3-[4-(4-Fluorophenyl)-5-(2-phenyl-1H-pyrrolo[2,3-b]pyridin-4-yl)-1,3-thiazol-2-yl]propan-1-01] | 8.96 | 8.94 | 6.12 | 7.71 | 7.71 |  |  | 
CC(O)Cn1cc(-c2ncnc3oc(-c4ccccc4)cc23)c(-c2ccc(F)cc2)n1 (centres unmarked) [Example 58, 1-[3-(4-Fluorophenyl)-4-(6-phenylfuro[2,3-d]pyrimidin-4-yl)-1H-pyrazol-1-yl]propan-2-ol] | 9.46 | 9.75 |  |  |  | 5.68 | 7.24 | 7.36
CN(C)C(=O)CCc1nc(-c2ccc(F)cc2)c(-c2ncnc3oc(-c4ccccc4)cc23)o1 [Example 37, 3-[4-(4-fluorophenyl)-5-(6-phenylfuro[2,3-d]pyrimidin-4-yl)-1,3-oxazol-2-yl]-N,N-dimethylpropanamide] | 8.73 | 8.59 | 5.20 | 6.50 | 6.29 |  |  | 
O[C@H]1C[C@H](Cn2ncc(-c3ncnc4oc(-c5ccccc5)cc34)c2-c2ccc(F)cc2)C1 [Example 54, (1r,3r)-3-{[5-(4-fluorophenyl)-4-(6-phenylfuro[2,3-d]pyrimidin-4-yl)-1H-pyrazol-1-yl]methyl}cyclobutan-1-ol] | 7.80 | 7.70 | 5.05 | 6.00 | 6.08 |  |  | 
CN(C)S(=O)(=O)n1cc(-c2ncnc3oc(-c4ccccc4)cc23)c(-c2ccc(F)cc2)n1 [Example 51, 3-(4-fluorophenyl)-N,N-dimethyl-4-(6-phenylfuro[2,3-d]pyrimidin-4-yl)-1H-pyrazole-1-sulfonamide] | 7.77 | 7.56 | 4.97 | 6.11 | 6.01 |  |  | 
OCCCc1nc(-c2ccc(F)cc2)c(-c2ncnc3oc(-c4ccccc4)cc23)o1 [Example 35, 3-[4-(4-Fluorophenyl)-5-(6-phenylfuro[2,3-d]pyrimidin-4-yl)-1,3-oxazol-2-yl]propan-1-ol] | 9.02 | 9.27 |  |  |  | 5.23 | 6.87 | 6.73
CN1CCN(c2ccc(-c3cc4c(-c5cn(CCCO)nc5-c5ccc(F)cc5)ncnc4[nH]3)cc2)CC1 [Example 19, 3-[3-(4-Fluorophenyl)-4-{6-[4-(4-methylpiperazin-1-yl)phenyl]-7H-pyrrolo[2,3-d]pyrimidin-4-yl}-1H-pyrazol-1-yl]propan-1-ol] | 9.62 | 9.77 | 8.06 | 9.40 | 9.61 |  |  | 
OCCCc1nc(-c2ccc(F)cc2)n(-c2ccnc3[nH]c(-c4ccccc4)cc23)n1 [Example 3, 3-[5-(4-Fluorophenyl)-1-(2-phenyl-1H-pyrrolo[2,3-b]pyridin-4-yl)-1H-1,2,4-triazol-3-yl]propan-1-ol] | 8.50 | 8.78 | 6.09 | 6.89 | 6.77 |  |  | 
